Assay results taken from patent publication US11608323B2 (SYNGENTA LIMITED, priority 2013, dated 2023).

How the values were obtained:
Assay type in all cases: in vivo
ZEAMX [1] = assay: Pre-emergence herbicidal activity, glasshouse pot test; conditions: rate 1000 g/Ha, evaluated after 13 days, scale 0-5
Method in brief: (§1)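 Seeds sown in standard soil in pots, held one day in glasshouse (24/16 °C day/night, 14 h light, 65% humidity), then sprayed with aqueous solution of compound formulated in acetone/water 50:50 with 0.5% Tween 20. Grown on under same conditions, watered twice daily; damage scored after 13 days (0 = none, 5 = total).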

ABUTH [2] = assay: as above; conditions: rate 1000 g/Ha, evaluated after 13 days, scale 0-5
Method in brief: as §1

ECHCG [3] = assay: as above; conditions: rate 1000 g/Ha, evaluated after 13 days, scale 0-5
Method in brief: as §1

ALOMY [4] = assay: as above; conditions: rate 1000 g/Ha, evaluated after 13 days, scale 0-5
Method in brief: as §1

SETFA [5] = assay: as above; conditions: rate 1000 g/Ha, evaluated after 13 days, scale 0-5
Method in brief: as §1

AMARE [6] = assay: as above; conditions: rate 1000 g/Ha, evaluated after 13 days, scale 0-5
Method in brief: as §1

ZEAMX [7] = assay: Post-emergence herbicidal activity, glasshouse pot test; conditions: Zea mays; application post-emergence; rate 1000 g/Ha; evaluated after 13 days
Method in brief: (§2)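 Pot-grown seedlings sprayed 8 days after sowing with active ingredient in acetone/water (50:50) plus 0.5% Tween 20. Glasshouse at 24/16 °C day/night, 14 h light, 65% humidity, watered twice daily. Damage scored after 13 days on a 0–5 scale (5 = total damage, 0 = none).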

ABUTH [8] = assay: as above; conditions: Abutilon theophrasti; application post-emergence; rate 1000 g/Ha; evaluated after 13 days
Method in brief: as §2

ECHCG [9] = assay: as above; conditions: Echinochloa crus-galli; application post-emergence; rate 1000 g/Ha; evaluated after 13 days
Method in brief: as §2

ALOMY [10] = assay: as above; conditions: Alopecurus myosuroides; application post-emergence; rate 1000 g/Ha; evaluated after 13 days
Method in brief: as §2

SETFA [11] = assay: as above; conditions: Setaria faberi; application post-emergence; rate 1000 g/Ha; evaluated after 13 days
Method in brief: as §2

AMARE [12] = assay: as above; conditions: Amaranthus retroflexus; application post-emergence; rate 1000 g/Ha; evaluated after 13 days
Method in brief: as §2
For ABUTH damage score, application pre-emergence in this document: key: 5=total damage to plant; 0=no damage to plant.
For AMARE damage score, application pre-emergence in this document: key: 5=total damage to plant; 0=no damage to plant.
For Post-emergence herbicidal activity ABUTH (damage score 0-5) in this document: key: 5=total damage to plant; 0=no damage to plant.
For Post-emergence herbicidal activity ECHCG (damage score 0-5) in this document: key: 5=total damage to plant; 0=no damage to plant.

CC1C(O)N(c2cc(C(C)(F)F)ccn2)C(=O)N1C (stereo not drawn) [Compound A60]
ZEAMX damage score, application pre-emergence (ZEAMX [1]): 0 | ABUTH damage score, application pre-emergence (ABUTH [2]): 5 | ECHCG damage score, application pre-emergence (ECHCG [3]): 1 | ALOMY damage score, application pre-emergence (ALOMY [4]): 1 | SETFA damage score, application pre-emergence (SETFA [5]): 1 | AMARE damage score, application pre-emergence (AMARE [6]): 5 | Post-emergence herbicidal activity ZEAMX (damage score 0-5) (ZEAMX [7]): 3 | Post-emergence herbicidal activity ABUTH (damage score 0-5) (ABUTH [8]): 5 | Post-emergence herbicidal activity ECHCG (damage score 0-5) (ECHCG [9]): 4 | Post-emergence herbicidal activity ALOMY (damage score 0-5) (ALOMY [10]): 4 | Post-emergence herbicidal activity SETFA (damage score 0-5) (SETFA [11]): 3 | Post-emergence herbicidal activity AMARE (damage score 0-5) (AMARE [12]): 5

CCOC1C(O)N(c2cc(C(C)(C)F)ccn2)C(=O)N1C (stereo not drawn) [Compound A61]
ZEAMX damage score, application pre-emergence (ZEAMX [1]): 1 | ABUTH damage score, application pre-emergence (ABUTH [2]): 5 | ECHCG damage score, application pre-emergence (ECHCG [3]): 4 | ALOMY damage score, application pre-emergence (ALOMY [4]): 4 | SETFA damage score, application pre-emergence (SETFA [5]): 1 | AMARE damage score, application pre-emergence (AMARE [6]): 5 | Post-emergence herbicidal activity ZEAMX (damage score 0-5) (ZEAMX [7]): 3 | Post-emergence herbicidal activity ABUTH (damage score 0-5) (ABUTH [8]): 5 | Post-emergence herbicidal activity ECHCG (damage score 0-5) (ECHCG [9]): 5 | Post-emergence herbicidal activity ALOMY (damage score 0-5) (ALOMY [10]): 5 | Post-emergence herbicidal activity SETFA (damage score 0-5) (SETFA [11]): 5 | Post-emergence herbicidal activity AMARE (damage score 0-5) (AMARE [12]): 5

CCOC1C(OC(C)=O)N(c2cc(C(F)(F)F)ccn2)C(=O)N1C (stereo not drawn) [Compound A96]
ZEAMX damage score, application pre-emergence (ZEAMX [1]): 1 | ABUTH damage score, application pre-emergence (ABUTH [2]): 5 | ECHCG damage score, application pre-emergence (ECHCG [3]): 4 | ALOMY damage score, application pre-emergence (ALOMY [4]): 4 | SETFA damage score, application pre-emergence (SETFA [5]): 4 | AMARE damage score, application pre-emergence (AMARE [6]): 5 | Post-emergence herbicidal activity ZEAMX (damage score 0-5) (ZEAMX [7]): 3 | Post-emergence herbicidal activity ABUTH (damage score 0-5) (ABUTH [8]): 5 | Post-emergence herbicidal activity ECHCG (damage score 0-5) (ECHCG [9]): 5 | Post-emergence herbicidal activity ALOMY (damage score 0-5) (ALOMY [10]): 5 | Post-emergence herbicidal activity SETFA (damage score 0-5) (SETFA [11]): 5 | Post-emergence herbicidal activity AMARE (damage score 0-5) (AMARE [12]): 5

CCOC1C(OC(=O)[C@@H](OC(C)=O)c2ccccc2)N(c2cc(C(F)(F)F)ccn2)C(=O)N1C (stereo partly drawn) [Compound A97]
ZEAMX damage score, application pre-emergence (ZEAMX [1]): 3 | ABUTH damage score, application pre-emergence (ABUTH [2]): 5 | ECHCG damage score, application pre-emergence (ECHCG [3]): 4 | ALOMY damage score, application pre-emergence (ALOMY [4]): 4 | SETFA damage score, application pre-emergence (SETFA [5]): 4 | AMARE damage score, application pre-emergence (AMARE [6]): 5 | Post-emergence herbicidal activity ZEAMX (damage score 0-5) (ZEAMX [7]): 3 | Post-emergence herbicidal activity ABUTH (damage score 0-5) (ABUTH [8]): 5 | Post-emergence herbicidal activity ECHCG (damage score 0-5) (ECHCG [9]): 5 | Post-emergence herbicidal activity ALOMY (damage score 0-5) (ALOMY [10]): 5 | Post-emergence herbicidal activity SETFA (damage score 0-5) (SETFA [11]): 5 | Post-emergence herbicidal activity AMARE (damage score 0-5) (AMARE [12]): 5

CCOC1C(OC(=O)[C@@H]2[C@@H](C=C(Cl)Cl)C2(C)C)N(c2cc(C(F)(F)F)ccn2)C(=O)N1C (stereo partly drawn) [Compound A98]
ZEAMX damage score, application pre-emergence (ZEAMX [1]): 0 | ABUTH damage score, application pre-emergence (ABUTH [2]): 0 | ECHCG damage score, application pre-emergence (ECHCG [3]): 0 | ALOMY damage score, application pre-emergence (ALOMY [4]): 0 | SETFA damage score, application pre-emergence (SETFA [5]): 0 | AMARE damage score, application pre-emergence (AMARE [6]): 0 | Post-emergence herbicidal activity ZEAMX (damage score 0-5) (ZEAMX [7]): 1 | Post-emergence herbicidal activity ABUTH (damage score 0-5) (ABUTH [8]): 0 | Post-emergence herbicidal activity ECHCG (damage score 0-5) (ECHCG [9]): 0 | Post-emergence herbicidal activity ALOMY (damage score 0-5) (ALOMY [10]): 0 | Post-emergence herbicidal activity SETFA (damage score 0-5) (SETFA [11]): 0 | Post-emergence herbicidal activity AMARE (damage score 0-5) (AMARE [12]): 4

CCOC1C(OC(=O)[C@@H](C)c2ccc(CC(C)C)cc2)N(c2cc(C(F)(F)F)ccn2)C(=O)N1C (stereo partly drawn) [Compound A99]
ZEAMX damage score, application pre-emergence (ZEAMX [1]): 0 | ABUTH damage score, application pre-emergence (ABUTH [2]): 1 | ECHCG damage score, application pre-emergence (ECHCG [3]): 0 | ALOMY damage score, application pre-emergence (ALOMY [4]): 0 | SETFA damage score, application pre-emergence (SETFA [5]): 0 | AMARE damage score, application pre-emergence (AMARE [6]): 5 | Post-emergence herbicidal activity ZEAMX (damage score 0-5) (ZEAMX [7]): 1 | Post-emergence herbicidal activity ABUTH (damage score 0-5) (ABUTH [8]): 1 | Post-emergence herbicidal activity ECHCG (damage score 0-5) (ECHCG [9]): 3 | Post-emergence herbicidal activity ALOMY (damage score 0-5) (ALOMY [10]): 0 | Post-emergence herbicidal activity SETFA (damage score 0-5) (SETFA [11]): 0 | Post-emergence herbicidal activity AMARE (damage score 0-5) (AMARE [12]): 5

CCOC1C(OC(=O)[C@@H]2CCCO2)N(c2cc(C(F)(F)F)ccn2)C(=O)N1C (stereo partly drawn) [Compound A100]
ZEAMX damage score, application pre-emergence (ZEAMX [1]): 1 | ABUTH damage score, application pre-emergence (ABUTH [2]): 5 | ECHCG damage score, application pre-emergence (ECHCG [3]): 3 | ALOMY damage score, application pre-emergence (ALOMY [4]): 4 | SETFA damage score, application pre-emergence (SETFA [5]): 3 | AMARE damage score, application pre-emergence (AMARE [6]): 5 | Post-emergence herbicidal activity ZEAMX (damage score 0-5) (ZEAMX [7]): 4 | Post-emergence herbicidal activity ABUTH (damage score 0-5) (ABUTH [8]): 5 | Post-emergence herbicidal activity ECHCG (damage score 0-5) (ECHCG [9]): 5 | Post-emergence herbicidal activity ALOMY (damage score 0-5) (ALOMY [10]): 5 | Post-emergence herbicidal activity SETFA (damage score 0-5) (SETFA [11]): 5 | Post-emergence herbicidal activity AMARE (damage score 0-5) (AMARE [12]): 5

CCO[C@@H]1[C@@H](OC(=O)C(C)Cl)N(c2cc(C(F)(F)F)ccn2)C(=O)N1C (stereo partly drawn) [Compound A101]
ZEAMX damage score, application pre-emergence (ZEAMX [1]): 0 | ABUTH damage score, application pre-emergence (ABUTH [2]): 5 | ECHCG damage score, application pre-emergence (ECHCG [3]): 4 | ALOMY damage score, application pre-emergence (ALOMY [4]): 4 | SETFA damage score, application pre-emergence (SETFA [5]): 4 | AMARE damage score, application pre-emergence (AMARE [6]): 5 | Post-emergence herbicidal activity ZEAMX (damage score 0-5) (ZEAMX [7]): 3 | Post-emergence herbicidal activity ABUTH (damage score 0-5) (ABUTH [8]): 5 | Post-emergence herbicidal activity ECHCG (damage score 0-5) (ECHCG [9]): 5 | Post-emergence herbicidal activity ALOMY (damage score 0-5) (ALOMY [10]): 5 | Post-emergence herbicidal activity SETFA (damage score 0-5) (SETFA [11]): 5 | Post-emergence herbicidal activity AMARE (damage score 0-5) (AMARE [12]): 5
